Source: patent publication US6043045A, “Screening methods for the identification of novel antibiotics” (The Scripps Research Institute, priority 1998, dated 2000)
Entries after “also recorded” stand apart in the source; their conditions may differ. Where two headings read alike, the source gives them in different places.

Target: T1, KinA (Bacillus subtilis, UniProt P16497)
T1 construct: made in house
T1 sequence (P16497 1-606): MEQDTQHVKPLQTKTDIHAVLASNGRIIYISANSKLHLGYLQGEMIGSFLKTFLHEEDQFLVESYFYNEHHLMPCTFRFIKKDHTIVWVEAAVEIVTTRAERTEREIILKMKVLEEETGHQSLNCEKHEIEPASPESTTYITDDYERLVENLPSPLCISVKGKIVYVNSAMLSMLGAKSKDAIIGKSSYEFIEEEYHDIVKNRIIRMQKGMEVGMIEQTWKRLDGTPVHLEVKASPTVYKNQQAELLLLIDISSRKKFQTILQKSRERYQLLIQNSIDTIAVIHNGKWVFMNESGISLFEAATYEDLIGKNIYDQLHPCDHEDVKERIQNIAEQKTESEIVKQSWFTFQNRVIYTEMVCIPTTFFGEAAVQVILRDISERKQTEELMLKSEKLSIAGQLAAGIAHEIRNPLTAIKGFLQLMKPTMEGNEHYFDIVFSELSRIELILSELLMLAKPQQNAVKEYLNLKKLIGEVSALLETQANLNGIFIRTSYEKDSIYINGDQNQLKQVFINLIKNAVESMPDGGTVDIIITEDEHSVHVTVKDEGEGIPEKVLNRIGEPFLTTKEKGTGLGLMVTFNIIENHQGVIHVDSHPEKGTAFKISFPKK
Assay: biochemical
Assay type: biochemical
Details: for inhibition of KinA phosphorylation of SpoOF (in words): tested at 0.08% final concentration
Experimental: The reactions were performed in a 25 μl final volume containing 100 mM Tris pH 8.0, 100 mM KCl, 2 mM MgCl2, 0.5 mM dithiothreitol, 10% (v/v) glycerol, 0.1 % (w/v) gelatin, 4% (v/v) ethanol, 200 μM total ATP containing approximately 1.5 μCi [gamma-^32 P]ATP (New England Nuclear, 6000 Ci/mMol, 150 μCi/ml), 300 μM SpoOF protein and 0.04 μM KinA protein (Perego, et al., J. Bacteriol. 171: 6187-6196 (1989)) unless otherwise indicated. Fatty acids were added to varying final concentration from solutions made with 100% ethanol (the 4% ethanol concentration in the reaction mixture reflects these addition, or in the case of controls, the addition of ethanol alone). The reactions were initiated by addition of the ATP and incubated for thirty minutes at room temperature.
When higher KinA concentrations were used, the time of incubation was adjusted accordingly. The reactions were stopped by adding an equal volume of loading dye (0.25 M Tris pH 6.8, 20% (v/v) glycerol, 1% sodium dodecyl sulfate (w/v), 140 mM β-mercaptoethanol, 0.05% (w/v) bromophenol blue) and aliquots were loaded onto polyacrylamide gels (5% stacking, 15% separating, using the buffer system of Laemmi, Id., 1970).
The gels were run for approximately 16 hours at 10 mA constant current. The gels were covered with plastic wrap and subjected to autoradiography using Kodak XOmat RP1 film. Quantitation of activity was accomplished by cutting gels slices containing the appropriate phosphoprotein (usually SpoOF~P, see Section E below) and counting the Cerenkov radiation in a Beckman LF7500 scintillation counter (Beckman Instruments, Fullerton, Calif.). Equal-sized slices from blank areas of the gels were also counted and used to adjust for background. Percentage of activity was calculated using the value of the control reaction as 100%.
To quantify our initial assessment of inhibitory properties, the I0.5 values (at 4×10^-8 M KinA) were determined for each of the fatty acids. […] For example, the percent activity at an indicated oleic acid concentration is the ratio (×100) of the incorporation of ^32 P (from [γ^32 P]ATP) into the SpoOF protein relative to the incorporation in the control reaction containing no inhibitor. Typically, data are gathered from at least two different experiments. The I0.5 value is the concentration--e.g., the oleic acid concentration--corresponding to 50% activity as determined from the relevant graph.

[1] = Table 4, I0.5 at 4×10^-8 M KinA, 32P incorporation into SpoOF, read-out: Fatty Acid Inhibitors of KinA Activity (category by I0.5)
[2] = at 4×10^-8 M KinA, read-out: I0.5 value (concentration corresponding to 50% KinA activity)
[3] = Fatty Acid Inhibitors of KinA Activity (category by I0.5), Table 4, I0.5 at 4×10^-8 M KinA, 32P incorporation into SpoOF

## CC(C)CCCCCCCCCCC(=O)O [12-methyltridecanoic]
  inhibitory effect on KinA in vitro (in words): weak inhibitors
[1]
  IC50: 100 to 500 µM
Listed as 12-methyltridecanoic acid
  inhibitory effect on KinA in vitro (in words): weak in vitro inhibitors
Listed as iso 14:0
  inhibitory effect on KinA in vitro (in words): weak inhibitory properties

## CC(C)CCCCCCCCCCCC(=O)O [13-methyltetradecanoic]
  inhibitory effect on KinA in vitro (in words): weak inhibitors
[1]
  IC50: 100 to 500 µM
[2]
  IC50: 400 µM
Listed as 13-methyltetradecanoic acid
  inhibitory effect on KinA in vitro (in words): weak in vitro inhibitors
Listed as iso 15:0
  inhibitory effect on KinA in vitro (in words): weak inhibitory properties

## CC(C)CCCCCCCCCCCCC(=O)O [14-methylpentadecanoic]
  inhibitory effect on KinA in vitro (in words): not inhibitors
[1]
  IC50: > 1000 µM

## CC(C)CCCCCCCCCCCCCC(=O)O [15-methylhexadecanoic]
  inhibitory effect on KinA in vitro (in words): not inhibitors
[1]
  IC50: > 1000 µM

## CC(C)CCCCCCCCCCCCCCC(=O)O [16-methylheptadecanoic]
  inhibitory effect on KinA in vitro (in words): not inhibitors
[1]
  IC50: > 1000 µM

## CCCCC/C=C\C/C=C\C/C=C\C/C=C\CCCC(=O)O [all cis-5,8,11,14-eicosatetraenoic]
[3]
  IC50: < 70 µM

## CC/C=C\C/C=C\C/C=C\CCCCCCCC(=O)O [all cis-9,12,15-octadecanoic]
[1]
  IC50: < 70 µM

## CCCCC/C=C\C/C=C\CCCCCCCC(=O)O [cis,cis-9,12-octadecenoic]
[1]
  IC50: < 70 µM

## CCCCCCCCCCC/C=C\CCCCC(=O)O [cis-6-octadecanoic]
[1]
  IC50: < 70 µM

## CCCCCC/C=C\CCCCCCCC(=O)O [cis-9-hexadecanoic]
  inhibitory effect on KinA in vitro (in words): potent inhibitors
[1]
  IC50: < 70 µM

## CCCC/C=C\CCCCCCCC(=O)O [cis-9-tetradecenoic]
  inhibitory effect on KinA in vitro (in words): only a weak inhibitor
[1]
  IC50: 100 to 500 µM
[2]
  IC50: 200 µM

## CCCCCCCC/C=C\CCCCCCCCCC(=O)O [cis-11-eicosenoic]
[1]
  IC50: < 70 µM

## CCCCCC/C=C\CCCCCCCCCC(=O)O [cis-11-octadecanoic]
  inhibitory effect on KinA in vitro (in words): potent inhibitors
[3]
  IC50: < 70 µM

## CCCCCCCC/C=C\CCCCCCCCCCCC(=O)O [cis-13-docosenoic]
  inhibitory effect on KinA in vitro (in words): non-inhibitory
[1]
  IC50: > 1000 µM

## CCCCCCCC/C=C\CCCCCCCCCCCCCC(=O)O [cis-15-tetracosenoic]
  inhibitory effect on KinA in vitro (in words): non-inhibitory
[3]
  IC50: > 1000 µM

## CCCCCCCCCC(=O)O [decanoic]
  inhibitory effect on KinA in vitro (in words): not inhibitors
[3]
  IC50: > 1000 µM

## CCCCCCCCCCCC(=O)O [dodecanoic]
  inhibitory effect on KinA in vitro (in words): not inhibitors
[1]
  IC50: > 1000 µM

## CCCCCCCCCCCCCCCCCCCC(=O)O [eicosanoic]
[1]
  IC50: > 1000 µM

## O=P(O)(O)OCC(O)CO (centres unmarked) [glycerophosphate]
  inhibition of KinA phosphorylation of SpoOF (in words): Only oleic acid and stearic acid were inhibitory

## CCCCCCCCCCCCCCCCC(=O)O [heptadecanoic]
[1]
  IC50: > 1000 µM

## CCCCCCCCCCCCCCCC(=O)O [hexadecanoic]
  inhibitory effect on KinA in vitro (in words): little or no inhibitory effect
  inhibition of KinA phosphorylation of SpoOF (in words): Only oleic acid and stearic acid were inhibitory
[1]
  IC50: > 1000 µM

## CCCCCC(=O)O [hexanoic]
  inhibitory effect on KinA in vitro (in words): not inhibitors
[1]
  IC50: > 1000 µM

## CCCCCCCCCCCCCCCCCC(=O)O [octadecanoic]
[3]
  IC50: 100 to 500 µM
I0.5 value (concentration corresponding to 50% KinA activity), at 4×10^-8 M KinA
  IC50: 500 µM
Listed as stearic
  inhibitory effect on KinA in vitro (in words): little or no inhibitory effect
Listed as stearic acid
  inhibitory effect on KinA in vitro (in words): weak inhibitor; also recorded: very weak inhibitor
  inhibition of KinA phosphorylation of SpoOF (in words): weak inhibition

## CCCCCCCC(=O)O [octanoic]
  inhibitory effect on KinA in vitro (in words): not inhibitors
[1]
  IC50: > 1000 µM

## CCCCCCCCCCCCCC(=O)O [tetradecanoic]
[1]
  IC50: > 1000 µM

## C/C=C/C(=O)O [trans-2-butenoic]
[1]
  IC50: > 1000 µM

## CCCCCCCC/C=C/CCCCCCCC(=O)O [trans-9-octadecenoic]
[1]
  IC50: > 1000 µM
Listed as elaidic
  inhibitory effect on KinA in vitro (in words): little or no inhibitory effect; also recorded: not inhibitory

## CCCCCC/C=C/CCCCCCCCCC(=O)O [trans-11-octadecenoic]
[3]
  IC50: > 1000 µM
Listed as trans-vaccenic
  inhibitory effect on KinA in vitro (in words): little or no inhibitory effect; also recorded: not inhibitory

## L-α-glycerophosphatidylcholine
  inhibition of KinA phosphorylation of SpoOF (in words): Only oleic acid and stearic acid were inhibitory

## L-α-phosphatidic acid
  inhibition of KinA phosphorylation of SpoOF (in words): Only oleic acid and stearic acid were inhibitory

## L-α-phosphatidylcholine
  inhibition of KinA phosphorylation of SpoOF (in words): Only oleic acid and stearic acid were inhibitory
